Reference: PubChem BioAssay (NCI)
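Five concentrations, 48 hours, 96-well plates. Here, GI50 denotes the concentration required for 50% inhibition of growth. TGI denotes the concentration required for complete inhibition of growth.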

Key:
Experiment in all cases: inhibition of tumour cell growth, NCI panel, 48 h
PC-3 prostate = system: PC-3 prostate
OVCAR-4 ovarian = system: OVCAR-4 ovarian
OVCAR-8 ovarian = system: OVCAR-8 ovarian
MDA-MB-435 = system: MDA-MB-435
HCT-15 colon = system: HCT-15 colon
SK-MEL-5 melanoma = system: SK-MEL-5 melanoma
SNB-75 CNS = system: SNB-75 CNS
786-0 renal = system: 786-0 renal
SF-539 CNS = system: SF-539 CNS
EKVX NSCLC = system: EKVX NSCLC

Compound	GI50 (PC-3 prostate) [µM]	TGI (PC-3 prostate) [µM]	GI50 (OVCAR-4 ovarian) [µM]	TGI (OVCAR-4 ovarian) [µM]	GI50 (OVCAR-8 ovarian) [µM]	TGI (OVCAR-8 ovarian) [µM]	GI50 (MDA-MB-435) [µM]	TGI (MDA-MB-435) [µM]	GI50 (HCT-15 colon) [µM]	TGI (HCT-15 colon) [µM]	GI50 (SK-MEL-5 melanoma) [µM]	TGI (SK-MEL-5 melanoma) [µM]	GI50 (SNB-75 CNS) [µM]	TGI (SNB-75 CNS) [µM]	GI50 (786-0 renal) [µM]	TGI (786-0 renal) [µM]	GI50 (SF-539 CNS) [µM]	TGI (SF-539 CNS) [µM]	TGI (EKVX NSCLC) [µM]	GI50 (EKVX NSCLC) [µM]
O=C(/C=C\c1ccnc2ccccc12)c1ccc([N+](=O)[O-])cc1	8.62	48.2	3.71	> 100	12.4	> 100	2.24	6.55	2.55	9.2	3.63	22.3	> 75.4	> 100	16.9	> 89	6.82	24.9		
Cc1cc(C)c(C(=O)OC(c2ccccc2)C(c2ccccc2)N2CCOCC2)c(C)c1 (stereo not given)										> 100				> 100		> 100		> 100	> 100	
C=C(C)[C@H]1CC/C(C)=C/CCC(C)C(=O)CC/C(CO)=C\[C@@H]1O (stereo not given in full)	76.3	> 100	20.4	> 100	> 100	> 100	49.2	> 100	5.47	> 100	40.7	> 100			> 100	> 100	> 100	> 100	> 100	55.5
O=Nc1c(O)ccc2ccccc12	1.85	8.29	1.29	2.57	2.28	7.04	1.88	3.38	3.85	15.9	1.46	2.85	2.52	14.5	10.2	22	2.59	6.29		
O=[N+]([O-])c1ccccc1C1N2CCCCC2[C@@H]2c3[nH]c4ccccc4c3CCN12 (stereo not given in full)				32.3		39.1				29.4		26.2				29.7		25.1	41.3	
O=C1C2=C(c3ccccc31)C(c1ccccc1Cl)N1C(=O)CSC1=N2 (stereo not given)				> 100		> 100				> 100		> 100		> 100		> 100		> 100	> 100	
COc1ccccc1-n1c(SCc2cc(OC)c(OC)c(OC)c2)nc2ccc(Cl)cc2c1=O	2.65	> 100	7.35	> 100	8.86	> 100	0.366	25.8	1.46	> 100	1.47	> 100	2.41	32.7	4.46	> 100	3.41	19.6		
O=c1[nH]c(=S)[nH]c(O)c1/C=C1\C=CC=N1				32		17.9				14.8		> 100		42.5		24.8		40.5	56.7	
